Data on twelve compounds can be found in PMC6950969 (Saudi Pharmaceutical Journal : SPJ, 2019).

Assay [1] deals with butyrylcholinesterase (BChE). The following applies: coumarins from Angelica officinalis L. fruits; ref Ferreira et al., 2006; cited from earlier work.
Assay [2] deals with butyrylcholinesterase (BChE). The assay is described as follows: BChE inhibition, Ellman's method. The assay is classed as biochemical. To be noted: for Percentile of inhibition ± S.E.M against BChE: 20 µg/mL.
The nature of assay [3]: Anti-lipid peroxidation activity.
In assay [4] the test system is Acetylcholinesterase (AChE). The assay is described as follows: AChE inhibition, Ellman's method. The assay is classed as biochemical. The following applies: 20 µg/mL.
A further assay addresses hCA I (Homo sapiens, UniProt P00915). The assay is described as follows: hCA I inhibition, esterase activity. The format is biochemical.
A further assay addresses hCA II (Homo sapiens, UniProt P00918). In words: hCA II inhibition, esterase activity. The format is biochemical.
For another assay, the system named is Caco-2 cells. The following applies: purified from A. dahurica; ref Liu et al., 2016; cited from earlier work.
The test system of a further assay is pPI3K and pAkt. To be noted: cells Caco-2; ref Liu et al., 2016; cited from earlier work.

Values after ≈ are worked out from the molar mass of the structure shown. Counter-ions that a name gives are not always drawn.

For orientation: IC50 means the concentration needed to halve the response being measured. A lower IC50 goes with higher potency. For orientation: Ki means the dissociation constant of the complex between target and ligand, obtained from inhibition or displacement. Low values mean higher affinity, high ones lower affinity.

Chain of hCA I (P00915 whole entry): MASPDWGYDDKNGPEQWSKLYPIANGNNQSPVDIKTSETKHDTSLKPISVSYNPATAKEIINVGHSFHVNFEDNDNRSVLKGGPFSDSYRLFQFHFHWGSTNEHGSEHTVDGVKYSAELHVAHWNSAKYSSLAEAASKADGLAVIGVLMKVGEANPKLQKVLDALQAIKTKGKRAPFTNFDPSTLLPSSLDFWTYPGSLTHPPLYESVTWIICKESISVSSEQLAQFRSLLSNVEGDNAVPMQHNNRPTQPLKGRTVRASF

In the case of `CC(C)=CCOc1c2ccoc2cc2oc(=O)ccc12` [isoimperatorin], the “inhibition towards butyrylcholinesterase (BChE) (in words)” value (“inhibition towards butyrylcholinesterase” for short) in assay [1] is recorded as “strong inhibition”.

Take `CC[C@H](/C=C/[C@@H](C)[C@H]1CC[C@H]2[C@@H]3CC=C4C[C@@H](O)CC[C@]4(C)[C@H]3CC[C@]12C)C(C)C` [Stigmasterol]: in assay [2], the “BChE inhibition activity (in words)” value is on record as “did not show considerable inhibition towards BChE” and the “Percentile of inhibition ± S.E.M against BChE” value turned out to be 13.34 ± 2.99%.

For `COc1cc2c(cc1OC)C(=O)C(CC1CCN(Cc3ccccc3)CC1)C2` (centres unmarked) [Donepezil, donepezil hydrochloride, reference compound], the “Percentile of inhibition ± S.E.M against BChE” value in assay [2] amounted to 90.33 ± 4.16%.

Regarding `CC1(C)O[C@H]1COc1c2ccoc2cc2oc(=O)ccc12` [Oxypeucedanin], in assay [3], the “IC50 values ± SD, anti-lipid peroxidation (TBA test)” value (from here on “IC50 values ± SD”) came to 91.27 ± 2.76 µg/mL (≈ 319 µM). Moreover, in assay [4], the “Percentile of inhibition ± S.E.M against AChE” value is 19.36 ± 1.87%. In addition, the “Percentile of inhibition ± S.E.M against BChE” value in assay [2] amounted to 36.89 ± 1.23%. In addition, the half-inhibitory concentration (IC50) against hCA I came to 6.73 µM; at hCA II it was 5.29 µM. The Ki is 5.33 ± 1.08 µM on hCA I and 8.85 ± 1.05 µM on hCA II.

For `COc1c2ccoc2cc2oc(=O)ccc12` [Bergapten], the “IC50 values ± SD” value in assay [3] is reported as 56.99 ± 3.87 µg/mL (≈ 264 µM). Besides, in assay [4], the “Percentile of inhibition ± S.E.M against AChE” value came out at 18.98 ± 2.98%. In addition, the “Percentile of inhibition ± S.E.M against BChE” value in assay [2] came out at 31.00 ± 3.02%. Further, the IC50 against hCA I is 7.29 µM; against hCA II it was 8.25 µM. For the same compound, the Ki on hCA I is 4.79 ± 0.57 µM; on hCA II it was 12.8 ± 1.92 µM. For the same compound, the “inhibition towards butyrylcholinesterase” value in assay [1] is on record as “strong inhibition”.

Turning to `COc1c2occc2cc2ccc(=O)oc12` [xanthotoxin], the “inhibition towards butyrylcholinesterase” value in assay [1] is “strong inhibition”.

On to `CCCOC(=O)c1cc(O)c(O)c(O)c1` [Propyl gallate, reference compound], for which the “IC50 values ± SD” value in assay [3] came to 3.44 ± 2.05 µg/mL (≈ 16.2 µM).

Regarding Oxypeucedanin hydrate monoacetate, the “cancer cell migration (in words)” value in the assay on Caco-2 cells is on record as “inhibition of cancer cell migration”. The “expression of pPI3K and pAkt (in words)” value in the assay with pPI3K and pAkt was “significant down-regulation”.

For the compound `CC[C@H](CC[C@@H](C)[C@H]1CC[C@H]2[C@@H]3CC=C4C[C@@H](O)CC[C@]4(C)[C@H]3CC[C@]12C)C(C)C` [β-Sitosterol], the “IC50 values ± SD” value in assay [3] is on record as 492.30 ± 2.03 µg/mL (≈ 1190 µM). For the same compound, in assay [2], the “BChE inhibition activity (in words)” value is “did not show considerable inhibition towards BChE” and the “Percentile of inhibition ± S.E.M against BChE” value came to 9.93 ± 1.78%.

In the case of `CC(C)=CCOc1c2occc2cc2ccc(=O)oc12` [imperatorin], the “inhibition towards butyrylcholinesterase” value in assay [1] is listed as “strong inhibition”.

As for `C[C@@H]1O[C@@H](OC[C@H]2O[C@@H](Oc3c(-c4ccc(O)c(O)c4)oc4cc(O)cc(O)c4c3=O)[C@H](O)[C@@H](O)[C@@H]2O)[C@H](O)[C@H](O)[C@H]1O` [Rutin, reference compound], the “IC50 values ± SD” value in assay [3] came to 9.65 ± 3.09 µg/mL (≈ 15.8 µM).

Consider `O=C(/C=C/c1ccc(O)c(O)c1)O[C@@H]1C[C@](O)(C(=O)O)C[C@@H](O)[C@H]1O` [Chlorogenic acid, reference compound], for which the “IC50 values ± SD” value in assay [3] worked out at 12.98 ± 4.89 µg/mL (≈ 36.6 µM).
